US4788209A, “Antifungal 2-anilinothiazolines” (Merrell Dow Pharmaceuticals Inc., priority 1987, dated 1988)
Converted amounts (≈) assume the structure as drawn. Like-named read-outs stand apart in the source and are kept apart here.

Tests used:
Candida albicans [1] = test: Single dose therapy of rat vaginitis (vaginal candidiasis) induced by two challenge levels; assay type: in vivo; conditions: 0.2 ml of 10% solution intravaginally, 24 hours after treatment
Protocol: To compare the activity of N-(4-hexylphenyl)-4,5-dihydro-2-thiazolamine with that of the well established antifungal agents miconazole and Clotrimazole, vaginal candidiasis was induced in rats.
Groups of 6 female, ovariectomized rats, 180-200 gram weight, were pretreated for 2 successive days with 0.5 mg of progesterone and 0.5 mg of estradiol administered subcutaneously to induce oestrus. Forty-eight hours later rats were infected intravaginally on 2 successive days with Candida albicans cells. Challenge levels of 1×10^7 and 1×10^6 cells were employed. Seventy-two hours after infection, the rats were treated topically (intravaginally) with 0.2 ml of a 10% solution of test compound in a vehicle consisting of the following: cetyl alcohol, 3.5 gm; glycerol monostearate polyethyleneglycol 100, 4.0 gm; diglycol stearate, 3.0 gm; polyethyleneglycol 400, 18.75 gm; and purified water, 18.75 gm.
Twenty-four hours after treatment, vaginal washings were collected, diluted and mixed with Mycosel agar in petri dishes. The dishes were incubated for 48 hours and colonies were counted to determine the surviving number of yeast cells per vaginal washing.

Candida albicans [2] = test: Minimal inhibitory concentration against yeasts (Mycophil agar, Steers-Foltz apparatus); assay type: cell-based; conditions: 24 hours at 37° C.
Protocol: (§1) The compounds of the present invention show activity against pathogenic fungi in vitro and in vivo. The activity of N-(4-hexylphenyl)-4,5-dihydro-2-thiazolamine against various yeast fungi commonly responsible for diseases of humans and animals is illustrated in Table I.
(§2) The compound was prepared in 20 ml aliquots of Mycophil agar at concentrations of 1.5 μM to 250 μM. The agar surfaces were innoculated with approximately 1×10^5 yeast cells/ml using a Steers-Foltz apparatus. The plates were incubated for 24 hours at 37° C. and examined for yeast growth. The minimal inhibitory concentration (MIC) is reported as the lowest concentration of compound that inhibited growth.

Candida parapsilosis = test: as above; assay type: cell-based; conditions: Lodderomyces parapsilosis; 24 hours at 37° C.
Protocol: as §1, §2

Candida pseudotropicalis = test: as above; assay type: cell-based; conditions: Kluyveromyces marxianus; 24 hours at 37° C.
Protocol: as §1, §2

Candida tropicalis = test: as above; assay type: cell-based; conditions: 24 hours at 37° C.
Protocol: as §1, §2

Torulopsis glabrata = test: as above; assay type: cell-based; conditions: Nakaseomyces glabratus; 24 hours at 37° C.
Protocol: as §1, §2

| SMILES | % Killed (Candida albicans [1]; challenge 1 × 10^6 cells) | Cells/ml Lavage (Candida albicans [1]; challenge 1 × 10^6 cells) | % Killed (Candida albicans [1]; challenge 1 × 10^7 cells) | Cells/ml Lavage (Candida albicans [1]; challenge 1 × 10^7 cells) | MIC (Candida albicans [2]; Candida albicans, strain 1, read-out: MIC) | MIC (Candida albicans [2]; strain 8) | MIC (Candida albicans [2]; strain 10) | MIC (Candida albicans [2]; strain 14) | MIC (Candida albicans [2]; strain 16) | MIC (Candida parapsilosis) | MIC (Candida pseudotropicalis) | MIC (Candida tropicalis; Candida tropicalis, strain 4, read-out: MIC) | MIC (Candida tropicalis; strain 20) | MIC (Torulopsis glabrata) |
| --- | --- | --- | --- | --- | --- | --- | --- | --- | --- | --- | --- | --- | --- | --- |
| Clc1ccc(COC(Cn2ccnc2)c2ccc(Cl)cc2Cl)c(Cl)c1 (stereo not shown) [Miconazole, miconazole] | 88% | 7 × 10^3 Cells/ml | 90% | 2 × 10^4 Cells/ml | – | – | – | – | – | – | – | – | – | – |
| CCCCCCc1ccc(NC2=NCCS2)cc1 [N-(4-Hexylphenyl)-4,5-dihydro-2-thiazolamine] | 97% | 2 × 10^3 Cells/ml | 98% | 5 × 10^3 Cells/ml | 8 µg/mL (≈ 30.5 µM) | 8 µg/mL (≈ 30.5 µM) | 8 µg/mL (≈ 30.5 µM) | 8 µg/mL (≈ 30.5 µM) | 8 µg/mL (≈ 30.5 µM) | 4 µg/mL (≈ 15.2 µM) | 2 µg/mL (≈ 7.62 µM) | 8 µg/mL (≈ 30.5 µM) | 8 µg/mL (≈ 30.5 µM) | 8 µg/mL (≈ 30.5 µM) |
| Clc1ccccc1C(c1ccccc1)(c1ccccc1)n1ccnc1 [Clotrimazole] | 83% | 1 × 10^4 Cells/ml | 75% | 5 × 10^4 Cells/ml | – | – | – | – | – | – | – | – | – | – |
